This passage reports IC50 results from patent publication US20230271956A1, “AMIDE DERIVATIVES” (Merck Patent GmbH, priority 2020, published 2023).

By IC50 is commonly meant the midpoint of a concentration-inhibition curve.

For assay [1], the target named is T1, human rec ACSS2 (Homo sapiens, UniProt Q9NR19).
T1 construct: myc (C); purchased Origene
Description: Biochemical activity ACSS2 assay (AMP-Glo). The following applies: human recombinant ACSS2, AMP-Glo, 180 min at 37° C. As for the experimental part: The biochemical activity assay for ACSS2 is based on the detection of released AMP by AMP-Glo ™ Assay kit (Promega, Madison). The assay is run in three steps: the enzymatic reaction in which human rec ACSS2 activates acetate with ATP and Coenzyme A as cosubstrates to acetyI-coA thereby releasing AMP and the detection reaction of AMP by AMP Glo assay in which after the destruction of the residual ATP with AMP Glo reagent 1 produced AMP is converted to ATP that is measured in a luciferase assay system (detection reagent). The ACSS2 activity correlates with the detected luminescence signal.
The assay was performed in Perkin Elmer 384well white Proxiplates in a total volume of 8 µl.
1 nM (fc) C-term myc tagged ACSS2 (human, recombinant, Origene, Rockville, US) and a mixture of 100 µM (fc) ATP, 100 µM (fc) Coenzyme A and 500 µM (fc) sodium acetate were incubated in a total volume of 5 µl (50 mM Hepes, 1 mM Mg-chloride, 150 mM NaCl, 1 mM DTT, 0.01 % (w/v) BSA, 0.3 % DMSO, pH 7.5) in the absence or presence of the test compound (10 dilution concentrations, start conc 30 µM) for 180 min at 37° C. The reaction was stopped and residual ATP destroyed by the addition of 1 µl AMP Glo reagent solution (Promega, Madison, US). After 1 h incubation at room temperature 2 µl of AMP Glo detection reagent was added and the assay was incubated for 0.75 hr at room temperature. The luminescence signal was measured with an Envision multimode reader (Perkin Elmer LAS Germany GmbH) at 700 nm in luminescence mode. The full value used was the inhibitor-free reaction. The pharmacological zero value was generated by addition of ACSS2 inhibitor (Ac-CoA Synthase Inhibitor - CAS 508186-14-9 -Calbiochem) in a final concentration of 5 µM. The inhibitory values (IC50) were determined using the program Assay Analyzer® from GeneData.

In assay [2] the target is T2, ACSS2 (Homo sapiens, UniProt Q9NR19).
T2 construct: endogenous fatty acid synthesis activity in the human HCT-15 cancer cell line; endogenous in cells; host or cells: HCT-15
Nature of the assay: Cellular assay of 14C acetate incorporation into histones (IC50 ACSS2 cellular histone). It is filed as cell-based. The following applies: HCT-15 cells. As to the method:
This protocol describes a cellular assay capable to quantify endogenous histone acetylation activity in the human HCT-15 cancer cell line following the incorporation of extracellularly administered radiolabeled ^14C acetate with a scintillation based read out on acid extracted histones.
HCT-15 cells are trypsinized, washed and suspended in DMEM culture medium supplemented with penicillin/streptomycin (100 U/mL), sodium pyruvate (1 mM), and 10% FBS
Compounds serial dilutions are prepared in 96-well V-bottom microplate from 10 mM stock solutions in DMSO. From these dilutions 0.5 µl are transferred to a fresh plate including pure DMSO as negative control. The dilutions are prepared such, that the final concentration in the assay is 1/400 of the concentration in the serial dilution. The final DMSO concentration in the assay is 0.25 %.
The cell suspension is seeded at densities of 2x10^5 cells per 170 µl into individual wells of a 96 well plate each containing 0.5 µl aliquots of compound serial dilutions and are kept for 1h in a cell incubator. To each well 30 µL of a mixture containing 0.5 mCi/mL of ^14C-acetate with full medium are added. Then, the wells are incubated for 3 hrs in the cell incubator.
Further steps of the procedure should be conducted on ice or instrumentations precooled to 4° C. Cells are sedimented in the 96-well V-bottom microplate by centrifugation (Eppendorf 5804 R) at 1200 rpm for 5 min. The supernatant is removed and the cells are washed twice with 200µL of PBS-NaB (5 mM sodium butyrate) buffer by iterative resuspension and centrifugation. Finally, the cells are resuspended in 50 µL of TEB (PBS-NaB + 0.5 % Triton X-100) and left on ice for 10 minutes. After centrifugation at 2300 rpm for 10 minutes at 4° C. the supernatant is removed, the remaining pellet is suspended in 50 µL of 0.2 M HCl and incubated over night at 4° C. After incubation the well plate is shaken for 2 minutes in a MTP plate shaker set to 1200 rpm and then centrifuged at 3700 rpm for 10 mins. The lysate is carefully aspirated (~43 µL) and transferred into a white MTP plate (Greiner bio-one 65509). 90 µL of Ultima Gold XR scintillation cocktail are added and the plates are sealed with a transparent cover tape before mixing vigorously using plate shaker set to 1200 rpm. Radioactivity from ^14C incorporation in the wells is measured as CPM count in a MicroBeta Trilux luminescence counter.

T2 sequence (Q9NR19 whole entry): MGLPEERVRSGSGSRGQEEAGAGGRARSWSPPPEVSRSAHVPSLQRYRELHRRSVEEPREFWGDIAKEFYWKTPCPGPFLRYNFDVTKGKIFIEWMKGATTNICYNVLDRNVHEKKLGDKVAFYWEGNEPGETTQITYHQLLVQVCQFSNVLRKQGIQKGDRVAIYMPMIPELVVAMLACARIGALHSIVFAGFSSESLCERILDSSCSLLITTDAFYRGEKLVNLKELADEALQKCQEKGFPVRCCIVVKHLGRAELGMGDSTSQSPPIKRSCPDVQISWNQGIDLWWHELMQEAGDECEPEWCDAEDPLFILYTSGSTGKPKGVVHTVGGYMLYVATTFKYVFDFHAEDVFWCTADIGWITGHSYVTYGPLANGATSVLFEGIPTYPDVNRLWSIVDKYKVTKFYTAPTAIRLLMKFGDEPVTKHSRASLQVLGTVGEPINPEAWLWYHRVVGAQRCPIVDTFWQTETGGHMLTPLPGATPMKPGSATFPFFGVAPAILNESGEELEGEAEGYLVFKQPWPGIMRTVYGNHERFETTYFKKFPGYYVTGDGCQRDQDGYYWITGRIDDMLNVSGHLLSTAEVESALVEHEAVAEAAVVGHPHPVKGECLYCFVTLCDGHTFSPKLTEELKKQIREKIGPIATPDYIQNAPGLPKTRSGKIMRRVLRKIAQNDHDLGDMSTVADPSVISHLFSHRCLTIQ
T1 sequence (Q9NR19 whole entry): as above

In the case of `CCc1c(C(O)(c2ccccc2)c2ccccn2)nc2cc(OC)c(C(=O)Nc3ncn(CC)n3)cn12` (single isomer, unassigned) [Compound 17, 3-ethyl-N-(1-ethyl-1,2,4-triazol-3-yl)-2-[hydroxy-phenyl-(2-pyridyl)methyl]-7-methoxy-imidazo[1,2-a]pyridine-6-carboxamide], the concentration for half-maximal inhibition (IC50) in assay [1] and in assay [2] was 10 to 100 nM throughout.

In the case of `CCn1cc(NC(=O)c2cc3c(nc2OC)nc(C(O)(c2ccc(OC(F)F)cc2)c2ccccc2F)n3CC)cn1` (racemic) [Compound 88, 2-{[4-(difluoromethoxy)phenyl](2-fluorophenyl)hydroxymethyl}-1-ethyl-N-(1-ethyl-1H-pyrazol-4-yl)-5-methoxy-1H-imidazo[4,5-b]pyridine-6-carboxamide], the half-inhibitory concentration (IC50) in assay [1] and in assay [2] was 10 to 100 nM each time.

Take `CCn1cnc(NC(=O)c2cc3c(nc2C)nc(C(O)(c2ccccc2F)c2ccc(OC(F)F)cc2F)n3CC)n1` (single isomer, unassigned) [Compound 95]: the half-maximal inhibitory concentration (IC50) in assay [1] and in assay [2] was 10 to 100 nM each time.

As to `CCn1cc(NC(=O)c2cc3c(nc2C)nc(C(O)(c2ccccc2)c2ccccc2)n3CC)cn1` [Compound 109, 1-ethyl-N-(1-ethyl-1H-pyrazol-4-yl)-2-(hydroxydiphenylmethyl)-5-methyl-1H-imidazo[4,5-b]pyridine-6-carboxamide], the IC50 in assay [1] and in assay [2] was 1 to 10 nM in each case.

With `CCn1cnc(NC(=O)c2cc3c(nc2C)nc(C(O)(c2ccccc2F)c2ccc(OC(F)F)cc2F)n3CC)n1` (single isomer, unassigned) [Compound 96], the values for the half-maximal inhibitory concentration (IC50) in assay [1] and in assay [2] were 1 to 10 nM and 10 to 100 nM, respectively.

As to `CCn1cnc(NC(=O)c2cc3c(nc2OC)nc(C(O)(c2ccc(OC(F)F)cc2)c2ccccc2F)n3CC)n1` (racemic) [Compound 87, 2-{[4-(difluoromethoxy)phenyl](2-fluorophenyl)hydroxymethyl}-1-ethyl-N-(1-ethyl-1H-1,2,4-triazol-3-yl)-5-methoxy-1H-imidazo[4,5-b]pyridine-6-carboxamide], the half-maximal inhibitory concentration (IC50) in assay [1] and in assay [2] was 1 to 10 nM each time.

With `CCn1cc(NC(=O)c2cc3c(nc2OC)nc(C(O)(c2ccccc2)c2ccc(OC(F)F)cc2)n3CC)cn1` (racemic) [Compound 80, 2-{[4-(difluoromethoxy)phenyl](hydroxy)phenylmethyl}-1-ethyl-N-(1-ethyl-1H-pyrazol-4-yl)-5-methoxy-1H-imidazo[4,5-b]pyridine-6-carboxamide], the IC50 in assay [1] and in assay [2] was 10 to 100 nM throughout.

`CCn1cc(NC(=O)c2cc3c(nc2Cl)nc(C(O)(c2ccccc2F)c2ccc(OC(F)F)cc2F)n3CC)cn1` (racemic) [Compound 93, 5-chloro-2-{[4-(difluoromethoxy)-2-fluorophenyl](2-fluorophenyl)hydroxymethyl}-1-ethyl-N-(1-ethyl-1H-pyrazol-4-yl)-1H-imidazo[4,5-b]pyridine-6-carboxamide]: the half-inhibitory concentration (IC50) in assay [1] fell in the range of 1 to 10 nM; in assay [2] it was 10 to 100 nM.

Regarding `CCn1cnc(NC(=O)c2cc3c(nc2OC)nc(C(O)(c2ccccc2C)c2ccccc2C)n3CC)n1` [Compound 52, 1-ethyl-N-(1-ethyl-1H-1,2,4-triazol-3-yl)-2-[hydroxybis(2-methylphenyl)methyl]-5-methoxy-1H-imidazo[4,5-b]pyridine-6-carboxamide], the half-maximal inhibitory concentration (IC50) in assay [1] and in assay [2] was 10 to 100 nM in each case.

`CCn1cnc(NC(=O)c2cc3c(nc2OC)nc(C(O)(c2ccccc2)c2ccccc2OC)n3CC)n1` (racemic) [Compound 57, 1-ethyl-N-(1-ethyl-1H-1,2,4-triazol-3-yl)-2-[hydroxy(2-methoxyphenyl)phenylmethyl]-5-methoxy-1H-imidazo[4,5-b]pyridine-6-carboxamide]: the figures for the half-maximal inhibitory concentration (IC50) in assay [1] and in assay [2] were 100 to 10000 nM and 10 to 100 nM, respectively.

`CCn1cnc(NC(=O)c2cc3c(nc2C)nc(C(O)(c2ccccc2F)c2ccccc2F)n3CC)n1` [Compound 106, 2-[bis(2-fluorophenyl)(hydroxy)methyl]-1-ethyl-N-(1-ethyl-1H-1,2,4-triazol-3-yl)-5-methyl-1H-imidazo[4,5-b]pyridine-6-carboxamide]: the IC50 in assay [1] and in assay [2] was 1 to 10 nM throughout.

As to `CCn1cnc(NC(=O)c2cc3c(nc2OC)nc(C(O)(c2ccccc2)c2cccnn2)n3CC)n1` (racemic) [Compound 45, 1-ethyl-N-(1-ethyl-1H-1,2,4-triazol-3-yl)-2-[hydroxy(phenyl)(pyridazin-3-yl)methyl]-5-methoxy-1H-imidazo[4,5-b]pyridine-6-carboxamide], the half-inhibitory concentration (IC50) in assay [1] and in assay [2] was 1 to 10 nM throughout.

As to `CCn1cnc(NC(=O)c2cc3c(nc2OC)nc(C(O)(c2ccccc2)c2ccc(OC(F)F)cc2F)n3CC)n1` (racemic) [Compound 78, 2-{[4-(difluoromethoxy)-2-fluorophenyl](hydroxy)phenylmethyl}-1-ethyl-N-(1-ethyl-1H-1,2,4-triazol-3-yl)-5-methoxy-1H-imidazo[4,5-b]pyridine-6-carboxamide], the IC50 lay within 1 to 10 nM in assay [1] and 0.01 to 1 nM in assay [2].

On to `CCn1cnc(NC(=O)c2cc3c(nc2OC)nc(C(O)(c2ccccc2)c2ccncn2)n3CC)n1` (racemic) [Compound 42, 1-ethyl-N-(1-ethyl-1H-1,2,4-triazol-3-yl)-2-[hydroxy(phenyl)(pyrimidin-4-yl)methyl]-5-methoxy-1H-imidazo[4,5-b]pyridine-6-carboxamide], for which the half-maximal inhibitory concentration (IC50) in assay [1] is 10 to 100 nM; in assay [2] it was 1 to 10 nM.

For the molecule `CCn1cnc(NC(=O)c2cc3c(nc2OC)nc(C(O)(c2ccccc2)c2ccc(OC(F)F)cc2)n3CC)n1` (racemic) [Compound 86, 2-{[4-(difluoromethoxy)phenyl](hydroxy)phenylmethyl}-1-ethyl-N-(1-ethyl-1H-1,2,4-triazol-3-yl)-5-methoxy-1H-imidazo[4,5-b]pyridine-6-carboxamide], the IC50 in assay [1] and in assay [2] was 1 to 10 nM throughout.

Turning to `CCn1cc(NC(=O)c2cc3c(nc2Cl)nc(C(O)(c2ccccc2F)c2ccccc2F)n3CC)cn1` [Compound 101, 2-[bis(2-fluorophenyl)(hydroxy)methyl]-5-chloro-1-ethyl-N-(1-ethyl-1H-pyrazol-4-yl)-1H-imidazo[4,5-b]pyridine-6-carboxamide], the concentration for half-maximal inhibition (IC50) in assay [1] is 1 to 10 nM; in assay [2] it was 0.01 to 1 nM.

With `CCn1cnc(NC(=O)c2cc3c(nc2Cl)nc(C(O)(c2ccccc2F)c2ccccc2F)n3CC)n1` [Compound 100, 2-[bis(2-fluorophenyl)(hydroxy)methyl]-5-chloro-1-ethyl-N-(1-ethyl-1H-1,2,4-triazol-3-yl)-1H-imidazo[4,5-b]pyridine-6-carboxamide], the IC50 in assay [1] lay within 0.01 to 1 nM; in assay [2] it was 1 to 10 nM.

As to `CCn1cnc(NC(=O)c2cc3c(nc2C)nc(C(O)(c2ccccc2F)c2ccc(OC(F)F)cc2F)n3CC)n1` (racemic) [Compound 97, 2-{[4-(difluoromethoxy)-2-fluorophenyl](2-fluorophenyl)hydroxymethyl}-1-ethyl-N-(1-ethyl-1H-1,2,4-triazol-3-yl)-5-methyl-1H-imidazo[4,5-b]pyridine-6-carboxamide], the values for the half-maximal inhibitory concentration (IC50) in assay [1] and in assay [2] were 1 to 10 nM and 10 to 100 nM, respectively.
